This is an account of results in patent publication US11499981B2, “Methods of identifying modulators of SAMTOR-GATOR1 interaction and use of same to modulate mTORC1” (Whitehead Institute for Biomedical Research, priority 2017, dated 2022).

One assay addresses T1, human FLAG-SAMTOR (Homo sapiens, UniProt Q1RMZ1).
T1 construct: made in house; host or cells: HEK-293F suspension cells, transient transfection; anti-FLAG IP, FLAG-peptide elution, size-exclusion chromatography
T1 sequence (Q1RMZ1 1-405): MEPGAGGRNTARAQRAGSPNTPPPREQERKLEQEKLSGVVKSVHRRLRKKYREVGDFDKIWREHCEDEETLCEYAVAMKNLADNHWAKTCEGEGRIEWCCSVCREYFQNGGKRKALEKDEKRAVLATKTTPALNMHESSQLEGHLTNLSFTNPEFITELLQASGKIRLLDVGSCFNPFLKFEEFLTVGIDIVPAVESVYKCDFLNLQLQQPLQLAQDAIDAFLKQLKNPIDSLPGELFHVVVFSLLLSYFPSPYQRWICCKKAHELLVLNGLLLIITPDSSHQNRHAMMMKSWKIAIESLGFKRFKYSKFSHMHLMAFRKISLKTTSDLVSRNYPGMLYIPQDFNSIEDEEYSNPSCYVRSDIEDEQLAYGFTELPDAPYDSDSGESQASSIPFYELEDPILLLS
The experiment in a line: Equilibrium [3H]SAM binding assay and competition binding assay with purified FLAG-SAMTOR. The protocol:
For radiolabelled SAM binding assays using FLAG-tagged wild-type SAMTOR (FIG. 3B), suspension HEK-293F cells were seeded at 2.5 million cells/ml, and the pRK5-FLAG-SAMTOR cDNA was transfected using polyethylenimine. 72-96 hours after transfection, cells were rinsed one time in cold PBS and lysed in 1% Triton lysis buffer (1% Triton, 40 mM Hepes pH 7.4, 2.5 mM MgCl2 and 1 tablet of EDTA-free protease inhibitor [Roche] per 25 ml buffer). Following anti-FLAG immunoprecipitation, the beads were washed 4 times with lysis buffer containing 500 mM NaCl and the protein was eluted in FLAG Elution Buffer (40 mM Hepes pH 7.4, 150 mM NaCl, 2.5 mM MgCl2 and 0.5 mg/ml FLAG peptide) for 1 hour at 4° C. […] Each sample was mixed well and then 15 μl aliquots were separately quantified using a TriCarb scintillation counter (Perkin Elmer). This process was repeated in pairs for each sample, to ensure similar incubation and wash times for all samples analyzed across different experiments. The affinities for SAM and SAH of human FLAG-SAMTOR were determined by first normalizing the bound [^3H]-labeled SAM concentrations across three separate binding assays performed with varying amounts of cold SAM or SAH. […]

The target in assay [1] is T2, SAMTOR-GATOR1-KICSTOR complex (Homo sapiens, UniProt Q1RMZ1).
T2 construct: FLAG-immunoprecipitates were prepared from the endogenously FLAG-tagged Depdc5 HEK-293T cells; endogenous in cells; host or cells: HEK-293T cells with endogenously FLAG-tagged Depdc5; anti-FLAG immunoprecipitate on beads
T2 sequence (Q1RMZ1 1-405): T1 sequence (Q1RMZ1 1-405)
The experiment in a line: In vitro GATOR1-SAMTOR dissociation assay (immunopurified complex, immunoblotting). Type of assay: biochemical. Particulars: for disruption of the interaction between SAMTOR and GATOR1 (FIG. 3D): 100 μM, added to FLAG-Depdc5 immunoprecipitates; for disruption of the interaction of SAMTOR with GATOR1-KICSTOR: added directly to the immunopurified complex kept at 4° C. On the procedure: HEK-293T cells stably expressing endogenous FLAG-tagged Depdc5 were lysed and subjected to anti-FLAG immunoprecipitations as described above. The GATOR1-SAMTOR complexes immobilized on the FLAG beads were washed twice in lysis buffer with 250 mM NaCl, and then incubated for 25 minutes in 0.3 ml of cytosolic buffer (0.1% Triton, 40 mM HEPES pH7.4, 10 mM NaCl, 150 mM KCl, 2.5 mM MgCl2) with the indicated concentrations of SAM or SAH in the cold. The amount of GATOR1, SAMTOR, GATOR2, and KICSTOR that remained bound was assayed by SDS-PAGE and immunoblotting as described previously.
In general terms: Immunoblotting shows a protein as a band on a membrane.

In assay [2] the target is T3, human FLAG-SAMTOR (SAMTOR, C7orf60; wild-type, FLAG-tagged, expressed in HEK-293F cells) (Homo sapiens, UniProt Q1RMZ1).
T3 construct: made in house; host or cells: HEK-293F (suspension), transient transfection of pRK5-FLAG-SAMTOR; anti-FLAG purification and size-exclusion chromatography
T3 sequence (Q1RMZ1 1-405): T1 sequence (Q1RMZ1 1-405)
The experiment in a line: Radiolabelled SAM binding assay: competition of unlabeled SAH with [3H]SAM for purified FLAG-SAMTOR (FIG. 3B). Particulars: 5 μM [3H]SAM competed with unlabeled SAH; 5 μg purified wild-type FLAG-SAMTOR on anti-FLAG beads, 1 h on ice, pH 7.4; Ki=IC50/(1+([3H]SAM)/Kd). The text has this: FIGS. 3A-3G depict S-adenosylmethionine binds SAMTOR to disrupt its interaction with GATOR1 and KICSTOR. FIG. 3A provides a schematic of the human SAMTOR protein indicating the Class I Rossmann fold methyltransferase domain. Shown is an alignment of partial sequences of this domain from SAMTOR in indicated species. Amino acid positions are colored from white to blue in order of increasing sequence similarity. Orange dots denote the G172 and D190 residues of human SAMTOR. […] FLAG-SAMTOR protein prepared from HEK-293F cells transiently expressing the FLAG-SAMTOR cDNA was further purified by size-exclusion chromatography. The protein was analyzed by SDS-PAGE followed by Coomassie blue staining. Binding assays were performed with purified FLAG-SAMTOR incubated with 5 μM [^3H]SAM and indicated concentrations of unlabeled SAM or SAH. Values for each point are mean±SD of three technical replicates from one representative experiment. The experiment was performed twice. […] FLAG-immunoprecipitates and cell lysates were analyzed by immunoblotting for the levels of the indicated proteins. […] The experiment was performed and analyzed as in (FIG. 3C). […] HA-immunoprecipitates and cell lysates were analyzed as (FIG. 3C). […] FLAG-immunoprecipitates and cell lysates were analyzed by immunoblotting for the phosphorylation states and levels of the indicated proteins. […]

Assay [3] addresses T4, SAMTOR-GATOR1-KICSTOR interaction in HEK-293T cells (Homo sapiens, UniProt Q1RMZ1).
T4 construct: expressed in transfected cells; host or cells: HEK-293T cells transiently transfected with HA-SAMTOR in pRK5 (25 ng)
T4 sequence (Q1RMZ1 1-405): T1 sequence (Q1RMZ1 1-405)
The experiment in a line: Co-immunoprecipitation of GATOR1 with HA-SAMTOR from methionine-starved and restimulated cells. It is filed as cell-based. Particulars: HEK-293T starved of methionine 2 hours.
Experimental: Cell volumes were determined by Coulter counter and used to calculate whole cell concentrations. […] HA-immunoprecipitates and cell lysates were analyzed by immunoblotting for the levels of the indicated proteins. […] Cell lysates were analyzed by immunoblotting for the phosphorylation states and the levels of the indicated proteins. […] Wild-type or SAMTOR-deficient HEK-293T cells were starved for the indicated amino acid for 2 hours. Cell lysates were analyzed by immunoblotting for the phosphorylation states and the levels of the indicated proteins. […] SAMTOR-deficient or control HEK-293T cells were treated as indicated for 2 hours prior to processing for immunofluorescence detection of mTOR and the lysosomal marker LAMP2. […] FLAG-immunoprecipitates and cell lysates were analyzed by immunoblotting for the phosphorylation states and the levels of the indicated proteins. […] Cell lysates were analyzed by immunoblotting for the phosphorylation states and the levels of the indicated proteins. […] Cell lysates were analyzed by immunoblotting for the phosphorylation states and the levels of the indicated proteins.
For anti-FLAG immunoprecipitations, anti-FLAG M2 Affinity Gel (SIGMA A2220) was washed with lysis buffer three times then resuspended to a ratio of 50:50 affinity gel to lysis buffer. […] Denatured samples were resolved by 8%-12% SDS-PAGE, and analyzed by immunoblotting.

Another assay relates to mTORC1. The assay can be described thus: mTORC1 signaling in methionine-starved cells (immunoblotting of mTORC1 substrate phosphorylation). Type of assay: cell-based, human. Particulars: for activation of mTORC1 after loss of MAT2A: MAT2A dox-off HEK-293T cells, 30 ng/mL doxycycline for 50 hours.

Experimental for mTORC1: Cell volumes were determined by Coulter counter and used to calculate whole cell concentrations. […] HA-immunoprecipitates and cell lysates were analyzed by immunoblotting for the levels of the indicated proteins. […] Cell lysates were analyzed by immunoblotting for the phosphorylation states and the levels of the indicated proteins. […] Wild-type or SAMTOR-deficient HEK-293T cells were starved for the indicated amino acid for 2 hours. Cell lysates were analyzed by immunoblotting for the phosphorylation states and the levels of the indicated proteins. […] SAMTOR-deficient or control HEK-293T cells were treated as indicated for 2 hours prior to processing for immunofluorescence detection of mTOR and the lysosomal marker LAMP2. In all images, insets represent selected fields magnified 3.07× as well as their overlays. Scale bar represents 10 μm. […] SAMTOR-null cells were co-transfected with a cDNA for FLAG-S6K1 along with the indicated HA-tagged cDNAs and cells were treated as in (FIG. 4C) prior to preparing lysates and FLAG-immunoprecipitates. FLAG-immunoprecipitates and cell lysates were analyzed by immunoblotting for the phosphorylation states and the levels of the indicated proteins. […] S2R+ cells were transfected with dsRNAs targeting the indicated mRNAs and starved for 1 hour for the indicated amino acid. Cell lysates were analyzed by immunoblotting for the phosphorylation states and the levels of the indicated proteins. […] MAT2A dox-off HEK-293T cells were treated with 30 ng/mL doxycycline for 50 hours prior to starving them as in (FIG. 4C). Cell lysates were analyzed by immunoblotting for the phosphorylation states and the levels of the indicated proteins.
Cells were rinsed with cold PBS and lysed in lysis buffer (1% Triton, 10 mM β-glycerol phosphate, 10 mM pyrophosphate, 40 mM Hepes pH 7.4, 2.5 mM MgCl2 and 1 tablet of EDTA-free protease inhibitor [Roche] (per 25 ml buffer)). […] Cell lysate samples were prepared by addition of 5× sample buffer (0.242 M Tris, 10% SDS, 25% glycerol, 0.5 M DTT, and bromophenol blue), resolved by 8%-16% SDS-PAGE, and analyzed by immunoblotting.

As a reminder, the Ki is a measure of affinity in units of concentration, obtained from inhibition or displacement. A lower Ki goes with tighter binding. Turning to `Nc1ncnc2c1ncn2[C@@H]1O[C@H](CSCC[C@H](N)C(=O)O)[C@@H](O)[C@H]1O` [SAH, S-adenosylhomocysteine], the “binding to SAMTOR in competition binding assay” value on human FLAG-SAMTOR (5 μM [3H]SAM with unlabeled competitor) is recorded as “can also bind”. Further, in assay [1], the “disruption of the interaction between SAMTOR and GATOR1 (FIG. 3D)” value is listed as “disrupt the interaction”; the “disruption of the interaction of SAMTOR with GATOR1-KICSTOR” value is on record as “disrupted the interaction”. In addition, the Ki in assay [2] was approximately 4.6 µM.

Turning to `C[S+](CC[C@H](N)C(=O)[O-])C[C@H]1O[C@@H](n2cnc3c(N)ncnc32)[C@H](O)[C@@H]1O` (stereo partly drawn) [SAM, S-adenosylmethionine], the Kd at human FLAG-SAMTOR (5 μM [3H]SAM with unlabeled SAM, read-out: dissociation constant of SAM for SAMTOR) is approximately 7 µM. In assay [1], the “disruption of the interaction between SAMTOR and GATOR1 (FIG. 3D)” value was “disrupt the interaction”; the “disruption of the interaction of SAMTOR with GATOR1-KICSTOR” value is reported as “disrupted the interaction”. In addition, the “SAMTOR-GATOR1-KICSTOR interaction in cells after re-addition” value in assay [3] (restimulated 20 minutes with 1 mM SAM) is reported as “reduced the interaction to baseline levels”. Moreover, the “activation of mTORC1 after loss of MAT2A” value in the assay with mTORC1 is on record as “largely intact”. In the assay with mTORC1 (methionine-starved HEK-293T cells (FIG. 4H)), the “mTORC1 signaling after addition to methionine-starved cells” value was “reactivated mTORC1 signaling”.

In the case of `CSCC[C@H](N)C(=O)O` [methionine], the “SAMTOR-GATOR1-KICSTOR interaction in cells after re-addition” value in assay [3] (restimulated 20 minutes with 100 μM methionine) is given as “reduced the interaction to baseline levels”. Also, in the assay with mTORC1, the “activation of mTORC1 after loss of MAT2A” value is listed as “greatly attenuated”.
